The text below walks through data of patent US20240261417A1, “SOS1 DEGRADING AGENT AND PREPARATION METHOD THEREFOR AND APPLICATION THEREOF” (SHANGHAI LEADINGTAC PHARMACEUTICAL CO. LTD., priority 2021, published 2024).

This experiment deals with T1, SOS1 protein (Homo sapiens, UniProt Q07889).
T1 sequence (Q07889 1-1333): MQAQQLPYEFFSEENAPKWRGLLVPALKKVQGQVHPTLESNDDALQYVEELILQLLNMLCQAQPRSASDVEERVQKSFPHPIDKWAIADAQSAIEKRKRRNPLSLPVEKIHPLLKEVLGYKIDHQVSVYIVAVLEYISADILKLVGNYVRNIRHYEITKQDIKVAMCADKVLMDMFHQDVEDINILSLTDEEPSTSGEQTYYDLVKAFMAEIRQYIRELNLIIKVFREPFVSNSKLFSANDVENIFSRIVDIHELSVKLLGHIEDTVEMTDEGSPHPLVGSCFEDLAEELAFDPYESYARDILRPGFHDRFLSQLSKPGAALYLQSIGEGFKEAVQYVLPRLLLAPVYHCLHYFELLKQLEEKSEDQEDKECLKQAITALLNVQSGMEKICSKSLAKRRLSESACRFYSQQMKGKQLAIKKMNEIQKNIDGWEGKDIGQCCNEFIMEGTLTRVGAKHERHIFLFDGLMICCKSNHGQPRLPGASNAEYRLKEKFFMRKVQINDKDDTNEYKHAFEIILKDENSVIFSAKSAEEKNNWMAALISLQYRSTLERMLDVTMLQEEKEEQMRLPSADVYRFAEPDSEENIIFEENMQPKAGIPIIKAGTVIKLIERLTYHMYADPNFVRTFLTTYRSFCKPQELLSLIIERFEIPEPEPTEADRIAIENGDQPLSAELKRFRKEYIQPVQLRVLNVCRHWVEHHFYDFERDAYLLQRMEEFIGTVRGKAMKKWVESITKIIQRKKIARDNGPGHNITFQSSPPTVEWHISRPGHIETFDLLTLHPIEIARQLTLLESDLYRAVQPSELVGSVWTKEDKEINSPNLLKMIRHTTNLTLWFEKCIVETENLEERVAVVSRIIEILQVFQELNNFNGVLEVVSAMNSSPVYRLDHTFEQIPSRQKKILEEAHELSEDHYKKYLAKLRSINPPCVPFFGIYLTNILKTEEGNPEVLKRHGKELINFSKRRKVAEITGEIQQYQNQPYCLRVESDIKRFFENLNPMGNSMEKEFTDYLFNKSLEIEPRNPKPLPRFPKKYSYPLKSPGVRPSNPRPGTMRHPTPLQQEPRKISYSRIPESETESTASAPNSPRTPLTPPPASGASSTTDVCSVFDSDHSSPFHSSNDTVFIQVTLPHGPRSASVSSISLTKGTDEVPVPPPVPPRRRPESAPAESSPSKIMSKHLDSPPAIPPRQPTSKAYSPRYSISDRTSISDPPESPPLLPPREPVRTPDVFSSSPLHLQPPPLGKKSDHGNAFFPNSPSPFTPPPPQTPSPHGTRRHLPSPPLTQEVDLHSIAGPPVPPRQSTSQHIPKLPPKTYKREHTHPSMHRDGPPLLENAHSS
In words: SOS1 degradation assay (Western blot), NCI-H358 cells. On the set-up: The degradation of SOS1 by the compounds was investigated on KRAS G12C mutant human non-small cell lung cancer cells NCI-H358; host or cells: NCI-H358 (human cancer cell lines). It is filed as cell-based. Particulars: SOS1 degradation, NCI-H358 cells, 24 h, Western blot; for DC50: read-out: NCI-H358 (G12C) DC50; for Dmax: read-out: NCI-H358 (G12C) Dmax. The protocol:
The specific procedures were as follows:
0.95 mL of cells were seeded into each well of a 24-well cell culture plate to achieve a cell density of 5×10^5 cells/well; the cell plate was incubated in an incubator at 37° C. with 5% CO2 overnight. Then 50 μL of the compound solution after dilution was added to each of the wells with the corresponding cells, so that the final concentration of the compound was in a range of 0.03-3000 nM. […] After dosing, the cell plate was incubated in an incubator at 37° C. with 5% CO2 for 24 h. […] After the plate was left to stand on ice for 30 min, the protein lysate in each well was transferred to a 1.5 mL centrifuge tube and centrifuged at 15000 g for 20 min at 4° C. The cell lysate supernatant after centrifugation was cryopreserved at −80° C. for testing and was used for determining the degradation level of the SOS1 protein by a WB method. The concentration of total protein in the cell lysate supernatant was determined using the BCA Protein Quantification Kit (Tiangen, PA115-02).
The concentration of total protein in the cell lysate was determined by BCA. The total protein was adjusted to 0.5 μg/μL with PBS and 5× SDS-PAGE protein loading buffer (Beyotime, P0015L), incubated in a water bath at 100° C. for 15 min, incubated in an ice bath on ice for 5 min, centrifuged at 14000 g for 1 min at 4° C., and mixed well as a loading sample for WB. Protein electrophoresis was performed on a precast gel (KeyGEN, KGMGO10W15) with a loading volume of 10 μL (total protein: 5 μg) using a Tris-MOPS-SDS running solution (Adamas, P1598253) at a constant voltage of 120 V for 55 min. After the electrophoresis, the protein on the gel strip was transferred to a PVDF membrane at a constant current of 250 mA for 65 min. After the membrane transfer, the membrane was incubated in 1× QuickBlock blocking buffer (Beyotime, P0235) for 30 min at room temperature. […] The protein map was subjected to gray value analysis by the chemiluminescence imaging system from Clinx. […] Then the degradation rate was calculated by comparing the gray correction value with the gray correction value of the control group. Then nonlinear curve fitting was performed by GraphPad Prism 8 in the logarithmic concentration-inhibition rate to obtain the DC50 and Dmax values of the compounds.

As a reminder, the DC50 is the concentration at which degradation of the target reaches its halfway point. What is called Dmax is the largest share of the target that was removed. For the compound `COc1cc2nc(C)nc(N[C@H](C)c3cc(N)cc(C(F)(F)F)c3)c2cc1C1CCN(C(=O)C2CCN(CC3CCC4(CC3)CCN(C(=O)c3ccc(Cl)c(N5CCC(=O)NC5=O)c3)CC4)CC2)CC1` [Example 4], the DC50 is 50 to 100 nM and the Dmax lay in the range of 30 to 50%.
Consider `COc1cc2nc(C)nc(N[C@H](C)c3cc(N)cc(C(F)(F)F)c3)c2cc1OC1CCN(C(=O)C2CCN(CC3CCC4(CC3)CCN(C(=O)c3ccc(Cl)c(N5CCC(=O)NC5=O)c3)CC4)CC2)CC1` [Example 5, (R)-1-(5-(9-((4-(4-((4-((1-(3-amino-5-(trifluoromethyl)phenyl)ethyl)amino)-7-methoxy-2-methylquinazolin-6-yl)oxy)piperidine-1-carbonyl)piperidin-1-yl)methyl)-3-azaspiro[5.5]undecane-3-carbonyl)-2-chlorophenyl)dihydropyrimidine-2,4(1H,3H)-dione], for which the DC50 fell in the range of 50 to 100 nM and the Dmax lay within 80 to 100%.
`COc1cc2nc(C)nc(N[C@H](C)c3cc(N)cc(C(F)(F)F)c3)c2cc1OC1CCN(CC2CCC3(CC2)CCN(C(=O)c2ccc(Cl)c(N4CCC(=O)NC4=O)c2)CC3)CC1` [Example 6, (R)-1-(5-(9-((4-((4-((1-(3-amino-5-(trifluoromethyl)phenyl)ethyl)amino)-7-methoxy-2-methylquinazolin-6-yl)oxy)piperidin-1-yl)methyl)-3-azaspiro[5.5]undecane-3-carbonyl)-2-chlorophenyl)dihydropyrimidine-2,4(1H,3H)-dione]: the DC50 is 1000 to 10000 nM and the Dmax was 30 to 50%.
For `COc1cc2nc(C)nc(N[C@H](C)c3cc(N)cc(C(F)(F)F)c3)c2cc1[C@H]1CC[C@H](C(=O)N2CCC(CN3CCC4(CC3)CCN(C(=O)c3ccc(Cl)c(N5CCC(=O)NC5=O)c3)CC4)CC2)CC1` [Example 7, 1-(5-(9-((1-((1R,4R)-4-(4-(((R)-1-(3-amino-5-(trifluoromethyl)phenyl)ethyl)amino)-7-methoxy-2-methylquinazolin-6-yl)cyclohexane-1-carbonyl)piperidin-4-yl)methyl)-3,9-diazaspiro[5.5]undecane-3-carbonyl)-2-chlorophenyl)dihydropyrimidine-2,4(1H,3H)-dione] the same measures were 1000 to 10000 nM and 30 to 50%.
As for `COc1cc2nc(C)nc(N[C@H](C)c3cc(N)cc(C(F)(F)F)c3)c2cc1[C@H]1CC[C@H](C(=O)N2CCC(CC3CCC4(CC3)CCN(C(=O)c3ccc(Cl)c(N5CCC(=O)NC5=O)c3)CC4)CC2)CC1` [Example 8, 1-(5-(9-((1-((1R,4R)-4-(4-(((R)-1-(3-amino-5-(trifluoromethyl)phenyl)ethyl)amino)-7-methoxy-2-methylquinazolin-6-yl)cyclohexane-1-carbonyl)piperidin-4-yl)methyl)-3-azaspiro[5.5]undecane-3-carbonyl)-2-chlorophenyl)dihydropyrimidine-2,4(1H,3H)-dione], the DC50 lay in the range of 50 to 100 nM and the Dmax fell in the range of 80 to 100%.
In the same order, the values of `COc1cc2nc(C)nc(N[C@H](C)c3cc(N)cc(C(F)(F)F)c3)c2cc1[C@H]1CC[C@H](C(=O)N(C)CC2CCC3(CC2)CCN(C(=O)c2ccc(Cl)c(N4CCC(=O)NC4=O)c2)CC3)CC1` [Example 9, (1R,4R)-4-(4-(((R)-1-(3-amino-5-(trifluoromethyl)phenyl)ethyl)amino)-7-methoxy-2-methylquinazolin-6-yl)-N-((3-(4-chloro-3-(2,4-dioxotetrahydropyrimidin-1(2H)-yl)benzoyl)-3-azaspiro[5.5]undecane-9-yl)methyl)-N-methylcyclohexane-1-carboxamide] are 1000 to 10000 nM and less than 30%.
In the same order, the values of `COc1cc2nc(C)nc(N[C@H](C)c3cc(N)cc(C(F)(F)F)c3)c2cc1[C@H]1CC[C@H](C(=O)N2CCN(CCCC3CCN(C(=O)c4ccc(Cl)c(N5CCC(=O)NC5=O)c4)CC3)CC2)CC1` [Example 11, 1-(5-(4-(3-(4-((1R,4R)-4-(4-(((R)-1-(3-amino-5-(trifluoromethyl)phenyl)ethyl)amino)-7-methoxy-2-methylquinazolin-6-yl)cyclohexane-1-carbonyl)piperazin-1-yl)propyl)piperidine-1-carbonyl)-2-chlorophenyl)dihydropyrimidine-2,4(1H,3H)-dione] are 1000 to 10000 nM and 30 to 50%.
Regarding `COc1cc2nc(C)nc(N[C@H](C)c3cc(N)cc(C(F)(F)F)c3)c2cc1[C@H]1CC[C@H](C(=O)N2CCN(CCC3CCN(C(=O)c4ccc(Cl)c(N5CCC(=O)NC5=O)c4)CC3)CC2)CC1` [Example 12, 1-(5-(4-(2-(4-((1R,4R)-4-(4-(((R)-1-(3-amino-5-(trifluoromethyl)phenyl)ethyl)amino)-7-methoxy-2-methylquinazolin-6-yl)cyclohexane-1-carbonyl)piperazin-1-yl)ethyl)piperidine-1-carbonyl)-2-chlorophenyl)dihydropyrimidine-2,4(1H,3H)-dione], the DC50 was 1000 to 10000 nM and the Dmax was 30 to 50%.
As for `COc1cc2nc(C)nc(N[C@H](C)c3cc(N)cc(C(F)(F)F)c3)c2cc1[C@H]1CC[C@H](C(=O)N2CCN(CC3CCN(C(=O)c4ccc(Cl)c(N5CCC(=O)NC5=O)c4)CC3)CC2)CC1` [Example 13, 1-(5-(4-((4-((1R,4R)-4-(4-(((R)-1-(3-amino-5-(trifluoromethyl)phenyl)ethyl)amino)-7-methoxy-2-methylquinazolin-6-yl)cyclohexane-1-carbonyl)piperazin-1-yl)methyl)piperidine-1-carbonyl)-2-chlorophenyl)dihydropyrimidine-2,4(1H,3H)-dione], the DC50 lay in the range of 1000 to 10000 nM and the Dmax is 30 to 50%.
Take `COc1cc2nc(C)nc(N[C@H](C)c3cc(N)cc(C(F)(F)F)c3)c2cc1[C@H]1CC[C@H](C(=O)N2CCC(CCCC3CCN(C(=O)c4ccc(Cl)c(N5CCC(=O)NC5=O)c4)CC3)CC2)CC1` [Example 14, 1-(5-(4-(3-(1-((1R,4R)-4-(4-(((R)-1-(3-amino-5-(trifluoromethyl)phenyl)ethyl)amino)-7-methoxy-2-methylquinazolin-6-yl)cyclohexane-1-carbonyl)piperidin-4-yl)propyl)piperidine-1-carbonyl)-2-chlorophenyl)dihydropyrimidine-2,4(1H,3H)-dione]: the DC50 is less than 50 nM and the Dmax lay within 50 to 80%.
